The text below walks through data of patent US20090298938A1, “USE OF SEMI SYNTHETIC ANALOGUES OF BOSWELLIC ACIDS FOR ANTICANCER ACTIVITY” (COUNCIL OF SCIENTIFIC & INDUSTRIAL RESEARCH, priority 2008, published 2009).

Entries after “also recorded” stand apart in the source; their conditions may differ.

Type in all cases: cell-based, human
The test system of test [1] is HL-60 cells. Kind of test: Reactive oxygen species (peroxides), DCFH-DA flow cytometry. On the procedure:
FIG. 4. Boswellic acid analogs produce early generation of reactive oxygen species. In order to determine the intracellular content of intracellular peroxides, HL-60 cells in both treated and untreated control groups of 1×10^6 cells were incubated with […] of DCFH-DA for 30 min prior to termination of a 6 hr treatment with the indicated concentrations of compound designated “c” which is the compound of formula 1, wherein R3=COCH2CH2CH3, […], R4+R5=O. Treatment with the compound designated “c” was associated with an increase in DCFH-DA derived fluorescence. The compound of formula 1 where R3=COCH2CH2CH3, […], R4+R5=O was taken as a prototype to investigate the mechanism of cell death mediated by induction of apoptosis. […] At the highest concentration used the peroxide generation was relatively of low order because of ROS associated cell death. BSO was used as positive control. The endogenous generation of peroxides was measured using a non-fluorescent probe DCFH-DA which upon entering the cell is deesterified to DCFH which is oxidized by the reactive oxygen species to a fluorescent product DCF that remains entrapped within the cells offering analysis by flow cytometery [[…] et al, 2006]. […] Thereafter cells were washed and stained for 1 hr with DCFH-DA and analysed on flow cytometer. […]

In test [2] the test system is caspase-3 in HL-60 cells. Description: Caspase-3 activation, colorimetric, HL-60. On the procedure:
(§1) FIGS. 8A-8B. Caspase activation in HL-60 cells by boswellic acid analogs. FIG. 8A depicts the results of a colorimetric evaluation of caspase-3 activation in HL-60 cells and Molt-4 cells. Cells were treated with a compound designated “c” (formula 1 compound wherein R3=COCH2CH2CH3, […] and R4+R5=O) at concentrations indicated for 6 hours. Caspase-3 inhibitor (DEVD-fmk) was added 30 min prior to the addition of caspase-3 substrate (DEVD-pNA) to the lysate. Data are mean of triplicate determinations with coefficients of variation less than 10%. […] Caspase-9 inhibitor LEHD-CHO was added 30 min prior to the addition of caspase-9 substrate to validate the specificity of caspase-9. Caspase-9 activity was measured fluorometrically. Data are a mean of triplicate determinations with a coefficient of variation of less than 10%. Caspases are important cysteine-proteases that are involved in the cleavage of DNA specifically producing 180 bp DNA fragments. The enzymes act through different signaling pathways. […] Caspase-9 activity was determined fluorometrically and caspase-3 colorimetrically using kits and the instruction provided by the manufacturer (BD pharmingen, USA). Caspase-3 activity was determined in both Molt-4 and HL-60 leukemia cells while caspase-9 was determined in HL-60 cells.

Test [3] has as its system HL-60 cells. Description: Apoptosis induction, annexin V-FITC/PI flow cytometry. As to conditions: HL-60, 15 μM, 6 hr. As to the method:
FIG. 2. Comparative efficacy of apoptosis induction: Measurement by flow cytometry. The effects of boswellic acid on the relative efficiency of induction of apoptosis and necrosis in HL-60 cells were analyzed by flow cytometry. Cells were incubated with each analog for 6 hrs and stained with annexin V-FITC labeled. The dot plots are representative of one of the two separate experiments. Values in the lower right quadrant represent the apoptotic population in the UR as post-apoptotic and in the UL as necrotic. Where a=compound of formula 1, R3=COCH2CH2CH3, […], R4=[…], b=compound of formula 1, R3=COCH2CH3R1=H, R4=[…], c=compound of formula 1, R3=COCH2CH2CH3, […], R4+R5=O, d=compound of formula 1, […], R3=COCH2CH3, R4=[…], e=compound of formula 1, R3=COCH2CH2CH3, […], R4=[…], f=β-boswellic acid. Compounds of formula 1 where […], R3=COCH2CH3R3=[…]; R3=COCH2CH2CH3, […], R4=[…] and natural β-boswellic acid produced low level of apoptotic cell population (approx. 10%) compared to compound of formula 1 where R3=COCH2CH2CH3, […], R4=[…] (17%), […], R3=COCH2CH3, R4=[…] (30%) and where R3=COCH2CH2CH3, […], R4+R5=O (23%), although the combined apoptotic and post-apoptotic population was about 32% with the last three analogs. Confirmation that boswellic acid analogs are potent inducers of apoptosis may also be obtained from DNA fragmentation assay. During the early events of apoptosis, phospholipid phosphatidyl serine of plasma membrane is externalized, which has very high affinity for annexinV antibody. Effect of a single concentration (15 μM) of each boswellic acid analogs on the relative efficiency of induction of apoptosis and necrosis in HL-60 cells was analyzed by flow cytometry. Cells were incubated with each analog for 6 hr and stained with Annexin V-FITC/PI. Camptothecin at 4 μM was used as positive control. There after, cells were washed and stained with FITC conjugated annexinV antibody and propidium iodide. The cells (10,000) were analysed by flow cytometery (BD, LSR) using ProQuest software.
(In flow cytometry, cells or beads pass a laser one at a time.)

The test system of test [4] is HL-60 cells. Description: Reduced glutathione content, fluorimetric. As to conditions: HL-60, 6 hr. On the procedure: FIG. 7. Modulation of reduced glutathione contents in HL-60 cells by boswellic acid analogs. GSH content was measured in HL-60 cells as described in the Examples section, using treated and untreated groups of about 3×10^6 cells per well and 3 mL of RPMI media. Cells were treated with buthionine sulfoxime (BSO), N-acetyl cysteine (NAC), a compound designated “c” (formula 1 compound wherein R3=COCH2CH2CH3, […] and R4+R5=O), and NAC+the compound “c”. Treatment concentrations were as indicated. […] The depleted GSH stores were restored by an anti-oxidant n-acetyl cysteine. Depletion of GSH content is an important indicator of predisposition conditions leading to cellular injury. Loss of mitochondrial functions as a result of GSH depletion may affect the energy status of the cells and therefore, is critical event in the induction of cell injury. GSH in general offers protection by scavenging reactive oxygen species and electrophiles formed within the cells. The GSH content of cells recovered back to normal or NAC control when cells were treated with sulfhydral groups antioxidant, N-acetyl cysteine (NAC). […] Reduced glutathione content was determined in 3×10^6 HL-60 cells/well/3 mL medium in a 6-well plate after incubation with SS-145 for 6 hr. Cells were washed and the reduced glutathione contents were extracted and determined using a standard fluorimetric method [[…] et al., 1976]. […]

Test [5] concerns caspase-9 in HL-60 cells. Kind of test: Caspase-9 activation, fluorometric, HL-60. As to conditions: HL-60, 50 μM, 6 hours. On the procedure: as §1

`CCCC(=O)OC1CCC2(C)C(CCC3(C)C2C(=O)C=C2C4C(C)C(C)CCC4(C)CCC23C)C1(C)C(=O)O` (centres unmarked) [R3=COCH2CH2CH3, R1=H, R4+R5=O]: the “peroxide positive cell population” value in test [1] (HL-60, 50 μg/ml, 6 hr) is recorded as 79%. The “ROS / peroxide generation (concentration dependence)” value in test [1] (HL-60, 6 hr, DCFH-DA) was “concentration related increase in ROS generation; also recorded: dose dependent increase”. For the same compound, the caspase-3 stimulation entry in test [2] (50 μM) is recorded as “about 50%”. Further, the caspase-3 activation result in test [2] (HL-60 cells, 6 hr) is “about 50%”. In addition, in test [3], the apoptotic cell population was determined as 23%; the “combined apoptotic and post-apoptotic population” value was “about 32%”. Besides, the “reduced glutathione (GSH) content” value in test [4] was “strongly depleted GSH content”. Also, the caspase-9 activity stimulation in test [5] is listed as 4-5 fold.
